Experimental data taken from ChEMBL document CHEMBL4311942, “Design of Trp-Rich Dodecapeptides with Broad-Spectrum Antimicrobial Potency and Membrane-Disruptive Mechanism” (J Med Chem, 2019).
The source made the active and inactive calls. Where a SMILES comes first, the peptide text is derived from it.

Experiments:
Staphylococcus aureus [1] = test: Induction of cell membrane disruption in Staphylococcus aureus ATCC 29213 after 30 mins by propidium iodide-staining based flow cytometric analysis; type: organism-based
Lipopolysaccharide (LPS) = test: Displacement of BODIPY-TR-cadaverine from Escherichia coli O111:B4 LPS assessed as increase in fluorescence intensity at 64 uM by spectrofluorophotometric method relative to control
Staphylococcus aureus [2] = test: Antibacterial activity against Staphylococcus aureus ATCC 29213 in presence of NaCl by broth microdilution method; type: functional
Escherichia coli [3] = test: Antibacterial activity against Escherichia coli ATCC 25922 in presence of NH4Cl by broth microdilution method; type: functional
Escherichia coli [4] = test: Induction of cell membrane disruption in Escherichia coli ATCC 25922 after 30 mins by propidium iodide-staining based flow cytometric analysis; type: organism-based
Escherichia coli [5] = test: Disruption of Escherichia coli ATCC 25922 cell membrane assessed as induction of arachnoid damage at 2 times MIC after 60 mins by field emission scanning electron microscopy; type: organism-based
Staphylococcus aureus [6] = test: Antibacterial activity against Staphylococcus aureus ATCC 29213 in presence of FeCl3 by broth microdilution method; type: functional
Staphylococcus aureus [7] = test: Antibacterial activity against Staphylococcus aureus ATCC 29213 in presence of H202 by broth microdilution method; type: functional
Staphylococcus aureus [8] = test: Antibacterial activity against Staphylococcus aureus ATCC 29213 incubated for 2 hrs in presence of sodium phosphate buffer at pH 4 by broth microdilution method; type: functional; conditions: ATCC 29213, 2 h
Staphylococcus aureus [9] = test: Antibacterial activity against Staphylococcus aureus ATCC 29213 in presence of NaBH4 by broth microdilution method; type: functional
Escherichia coli [10] = test: Antibacterial activity against Escherichia coli ATCC 25922 in presence of 12.5% serum by broth microdilution method; type: functional
Staphylococcus aureus [11] = test: Bactericidal activity against Staphylococcus aureus ATCC 29213 at 2 times MIC after 60 mins by time kill assay; type: functional, organism-based
Escherichia coli [12] = test: Antibacterial activity against Escherichia coli UB1005 incubated for 18 to 24 hrs by broth microdilution method; type: functional
Staphylococcus aureus [13] = test: Antibacterial activity against Staphylococcus aureus ATCC 29213 incubated for 2 hrs in presence of sodium phosphate buffer at pH 2 by broth microdilution method; type: functional; conditions: ATCC 29213, 2 h
[14] = Cytotoxicity against mouse RAW264.7 cells assessed as cell survival at <= 32 uM after 24 hrs by MTT assay relative to control; type: cell-based; conditions: RAW264.7 cells, up to 32 µM, read-out: Activity
Escherichia coli [15] = test: Antibacterial activity against Escherichia coli ATCC 25922 in presence of ZnCl2 by broth microdilution method; type: functional
Escherichia coli [16] = test: Induction of outer membrane permeabilization in Escherichia coli UB1005 assessed as increase in NPN uptake by spectrofluorophotometric assay; type: organism-based
Escherichia coli [17] = test: Inhibition of swimming motility of Escherichia coli ATCC 25922 after 16 hrs; type: functional, organism-based
Staphylococcus aureus [18] = test: Antibacterial activity against Staphylococcus aureus ATCC 29213 in presence of 25% serum by broth microdilution method; type: functional
Staphylococcus aureus [19] = test: Induction of cell membrane disruption in Staphylococcus aureus ATCC 29213 assessed as collapsed membrane at 1 to 2 times MIC after 60 mins by transmission electron microscopy; type: organism-based
Pseudomonas aeruginosa = test: Antibacterial activity against Pseudomonas aeruginosa 25349 clinical isolate incubated for 18 to 24 hrs by broth microdilution method; type: functional
Escherichia coli [20] = test: Antibacterial activity against Escherichia coli ATCC 25922 in presence of NaBH4 by broth microdilution method; type: functional
Staphylococcus aureus [21] = test: Induction of cell membrane disruption in Staphylococcus aureus ATCC 29213 assessed as leakage of cellular content at 1 to 2 times MIC after 60 mins by transmission electron microscopy; type: organism-based
Escherichia coli [22] = test: Antibacterial activity against Escherichia coli ATCC 25922 incubated for 18 to 24 hrs using FITC-labelled peptide by broth microdilution method; type: functional, organism-based
Escherichia coli [23] = test: Induction of cell membrane disruption in Escherichia coli ATCC 25922 assessed as leakage of cellular contents at 1 to 2 times MIC after 60 mins by transmission electron microscopy; type: organism-based
[24] = Drug localization in Staphylococcus aureus ATCC 29213 at 1 to 2 times MIC incubated for 1 hr using FITC-labelled peptides by propidium iodide-staining based regular fluorescent microscopy; type: ADME
Staphylococcus aureus [25] = test: Antibacterial activity against Staphylococcus aureus ATCC 29213 in presence of 12.5% serum by broth microdilution method; type: functional
Acinetobacter baumannii = test: Antibacterial activity against Acinetobacter baumannii AB1902 clinical isolate incubated for 18 to 24 hrs by broth microdilution method; type: functional
Staphylococcus aureus [26] = test: Antibacterial activity against Staphylococcus aureus 11011 incubated for 18 to 24 hrs by broth microdilution method; type: functional
Staphylococcus aureus [27] = test: Antibacterial activity against Staphylococcus aureus ATCC 25923 incubated for 18 to 24 hrs by broth microdilution method; type: functional
Staphylococcus aureus [28] = test: Induction of cell membrane disruption in Staphylococcus aureus ATCC 29213 assessed as apperance of broken and empty cell envelope at 2 times MIC after 60 mins by field emission scanning electron microscopy; type: organism-based
Escherichia coli [29] = test: Antibacterial activity against Escherichia coli ATCC 25922 incubated for 2 hrs in presence of sodium phosphate buffer at pH 4 by broth microdilution method; type: functional; conditions: ATCC 25922, 2 h
Escherichia coli [30] = test: Antibacterial activity against Escherichia coli ATCC 25922 in presence of 25% serum by broth microdilution method; type: functional
Staphylococcus aureus [31] = test: Induction of cell membrane disruption in Staphylococcus aureus ATCC 29213 assessed as propidium iodide-positive cells at 2 times MIC after 30 mins by flow cytometric analysis (reference value: 0.3%)
Escherichia coli [32] = test: Induction of cytoplasmic membrane depolarization in Escherichia coli UB1005 by DiSC3-5 dye based fluorescence method; type: organism-based
Escherichia coli [33] = test: Bactericidal activity against Escherichia coli ATCC 25922 at 4 times MIC after 60 mins by time kill assay relative to control; type: functional
Escherichia coli [34] = test: Antibacterial activity against Escherichia coli ATCC 25922 in presence of 50% serum by broth microdilution method; type: functional
Staphylococcus aureus [35] = test: Antibacterial activity against Staphylococcus aureus ATCC 29213 in presence of KCl by broth microdilution method; type: functional
Escherichia coli [36] = test: Bactericidal activity against Escherichia coli ATCC 25922 at 2 times MIC after 120 mins by time kill assay relative to control; type: functional
Staphylococcus aureus [37] = test: Antibacterial activity against Staphylococcus aureus ATCC 29213 incubated for 2 hrs in presence of sodium phosphate buffer at pH 10 by broth microdilution method; type: functional; conditions: ATCC 29213, 2 h
[38] = Drug localization in Staphylococcus aureus ATCC 29213 at 2 times MIC incubated for 1 hr using FITC-labelled peptides by propidium iodide-staining based super resolution fluorescent microscopy; type: ADME
[39] = Cytotoxicity against mouse RAW264.7 cells assessed as cell survival at […] after 24 hrs by MTT assay relative to control; type: cell-based; conditions: read-out: Activity
Escherichia coli [40] = test: Antibacterial activity against Escherichia coli 20411 clinical isolate incubated for 18 to 24 hrs by broth microdilution method; type: functional
Escherichia coli [41] = test: Antibacterial activity against Escherichia coli ATCC 25922 in presence of FeCl3 by broth microdilution method; type: functional

CC(C)C[C@H](NC(=O)[C@H](CCCNC(=N)N)NC(=O)[C@H](Cc1c[nH]c2ccccc12)NC(=O)[C@H](CCCNC(=N)N)NC(=O)[C@@H](NC(=O)[C@H](CCCCN)NC(=O)[C@H](Cc1c[nH]c2ccccc12)NC(=O)[C@H](CCCNC(=N)N)NC(=O)[C@H](CC(C)C)NC(=O)[C@H](CCCNC(=N)N)NC(=O)[C@@H](N)Cc1c[nH]c2ccccc12)[C@@H](C)O)C(=O)N[C@@H](CCCCN)C(N)=O (H-WRLRWKTRWRLK-NH2)
1 µM: MIC (Escherichia coli [3])
8 µM: MIC (Staphylococcus aureus [2]) | MIC (Staphylococcus aureus [18]) | MIC (Pseudomonas aeruginosa) | MIC (Escherichia coli [34])
97.7%: Activity (Staphylococcus aureus [31])
≥ 70%: viability at 24 h [14]
100%: Activity (Escherichia coli [33]) | Activity (Escherichia coli [36])
Active: Drug uptake [24] | Drug uptake [38]
active: Activity (Staphylococcus aureus [1]) Dose-dependent effect | Activity (Escherichia coli [4]) Dose-dependent effect | Activity (Escherichia coli [5]) | Activity (Staphylococcus aureus [11]) | Activity (Escherichia coli [16]) Dose-dependent effect | inhibition (Escherichia coli [17]) Dose-dependent effect | Activity (Staphylococcus aureus [19]) | Activity (Staphylococcus aureus [21]) | Activity (Escherichia coli [22]) | Activity (Escherichia coli [23]) | Activity (Staphylococcus aureus [28]) | Activity (Escherichia coli [32]) Dose-dependent effect
2 µM: MIC (Escherichia coli [12]) | MIC (Staphylococcus aureus [26]) | MIC (Staphylococcus aureus [27]) | MIC (Escherichia coli [29]) | MIC (Staphylococcus aureus [35]) | MIC (Escherichia coli [40])
92%: Activity (Lipopolysaccharide (LPS))
≤ 90%: viability at 24 h, […] [39]
4 µM: MIC (Staphylococcus aureus [6]) | MIC (Staphylococcus aureus [7]) | MIC (Staphylococcus aureus [8]) | MIC (Staphylococcus aureus [9]) | MIC (Escherichia coli [10]) | MIC (Staphylococcus aureus [13]) | MIC (Escherichia coli [15]) | MIC (Escherichia coli [20]) | MIC (Staphylococcus aureus [25]) | MIC (Acinetobacter baumannii) | MIC (Escherichia coli [30]) | MIC (Staphylococcus aureus [37]) | MIC (Escherichia coli [41])
